≈ marks a conversion by molar mass, not a printed value. Like-named read-outs stand apart in the source and are kept apart here.
Legend:
Assay in all cases: microbe, parasite or virus in culture
Type in all cases: cell-based, Mycobacterium tuberculosis
[1] = system: isoniazid resistant strain INH-R1
[2] = system: isoniazid resistant strain INH-R2
[3] = system: rifampicin resistant strain RIF-R1
[4] = system: rifampicin resistant strain RIF-R2
[5] = system: fluoroquinolone resistant strain FQ-R1
[6] = Mycobacterium tuberculosis, INHR1
[7] = Mycobacterium tuberculosis, INHR2
[8] = Mycobacterium tuberculosis, RIFR1, read-out: IC50
[9] = Mycobacterium tuberculosis, RIFR1, read-out: IC90
[10] = Mycobacterium tuberculosis, RIFR1, read-out: MIC
[11] = Mycobacterium tuberculosis, RIFR2, read-out: IC50
[12] = Mycobacterium tuberculosis, RIFR2, read-out: IC90
[13] = Mycobacterium tuberculosis, RIFR2, read-out: MIC
[14] = Mycobacterium tuberculosis, FQR1, read-out: IC50
[15] = Mycobacterium tuberculosis, FQR1, read-out: IC90
[16] = Mycobacterium tuberculosis, FQR1, read-out: MIC
[17] = Mycobacterium tuberculosis, RIFR1
[18] = Mycobacterium tuberculosis, RIFR2
[19] = Mycobacterium tuberculosis, FQR1

| Molecule | IC50 [1, 6] [µM] | IC90 [1, 6] [µM] | MIC [1, 6] [µM] | IC50 [2, 7] [µM] | IC90 [2, 7] [µM] | MIC [2, 7] [µM] | IC50 [3, 8] [µM] | IC90 [3, 9] [µM] | MIC [3, 10] [µM] | IC50 [4, 11] [µM] | IC90 [4, 12] [µM] | MIC [4, 13] [µM] | IC50 [5, 14] [µM] | IC90 [5, 15] [µM] | MIC [5, 16] [µM] | other results |
| --- | --- | --- | --- | --- | --- | --- | --- | --- | --- | --- | --- | --- | --- | --- | --- | --- |
| 4-[3-(4-Chlorophenyl)-1-(ethoxycarbonyl)indolizine-7-yl)-1-(2-(4-methoxyphenyl)-2-oxoethyl)pyridine-1-ium bromide [Compound 6c] |  |  |  |  |  |  |  |  |  |  |  |  |  |  |  | MIC ([1]; INH-R1): 14 µM; IC50 ([1]; INH-R1, read-out: IC50): 6.9 µM; IC90 ([1]; INH-R1, read-out: IC90): 14 µM; MIC ([2]; INH-R2): 16 µM; IC50 ([2]; INH-R2, read-out: IC50): 6.2 µM; IC90 ([2]; INH-R2, read-out: IC90): 19 µM; IC50 ([3]; read-out: IC50): 6.5 µM; IC90 ([3]; read-out: IC90): 10 µM; MIC ([3]; read-out: MIC): 10 µM; IC90 ([4]; read-out: IC90): 12 µM; MIC ([4]; read-out: MIC): 13 µM; IC50 ([5]; read-out: IC50): 8 µM; IC90 ([5]; read-out: IC90): 16 µM; MIC ([5]; read-out: MIC): 16 µM |
| CCOC(=O)c1cc(C(=O)c2ccccc2)n2ccc(-c3cc[n+](CC(=O)c4ccc(C)cc4)cc3)cc12.[Br-] [Compound 6a, 4-(3-Benzoyl-1-(ethoxycarbonyl)indolizine-7-yl)-1-(2-oxo-2-(p-tolyl)ethyl)pyridin-1-ium bromide] | 13 | 35 | 33 | 12 | 22 | 19 | 8.3 | 13 | 14 | 12 | 29 | 31 | 15 | 32 | 31 |  |
| CCOC(=O)c1cc(C(=O)c2ccc(Cl)cc2)n2ccc(-c3cc[n+](CC(=O)c4cccc(OC)c4)cc3)cc12 [Compound 6d, 4-(3-(4-Chlorobenzoyl)-1-(ethoxycarbonyl)indolizine-7-yl)-1-(2-(3-methoxyphenyl)-2-oxoethyl)pyridin-1-ium] | 14 | 36 | 28 | 15 | 35 | 30 | 12 | 24 | 22 | 12 | 14 | 16 | 21 | 32 | 32 |  |
| CCOC(=O)c1cc(C(=O)c2ccc(Br)cc2)n2ccc(-c3cc[n+](CC(=O)c4cccc(OC)c4)cc3)cc12 [Compound 6h, 4-(3-(4-Bromobenzoyl)-1-(ethoxycarbonyl)indolizine-7-yl)-1-(2-(3-methoxyphenyl)-2-oxoethyl)pyridin-1-ium] | 18 | > 50 | > 50 | 16 | 43 | > 50 | 13 | 26 | 24 | 15 | > 50 | > 50 | 26 | > 50 | > 50 |  |
| CCOC(=O)c1cc(C(=O)c2ccc(Cl)cc2)n2ccc(-c3cc[n+](CC(=O)c4ccc(C)cc4)cc3)cc12 [Compound 6i] | 13 | 23 | 22 | 9.8 | 20 | 20 | 7.7 | 15 | 15 | 12 | 22 | 22 | 11 | 28 | 27 |  |
| NNC(=O)c1ccncc1 [Isoniazid, reference compound] | > 200 | > 200 | > 200 | > 200 | > 200 | > 200 | 0.063 | 0.094 | 0.092 (≈ 0.0126 µg/mL) | 0.27 | 0.3 | 0.31 (≈ 0.0425 µg/mL) | 0.13 | 0.15 | 0.16 (≈ 0.0219 µg/mL) |  |
| C[C@H]1COc2c(N3CCN(C)CC3)c(F)cc3c(=O)c(C(=O)O)cn1c23 [Levofloxacin, levofloxacin, reference compound] | 1.9 | 3 | 2.9 (≈ 1.05 µg/mL) | 2.4 | 4.3 | 3.5 (≈ 1.26 µg/mL) | 1.6 | 2.6 | 2.7 (≈ 0.976 µg/mL) | 1.7 | 3 | 2.9 (≈ 1.05 µg/mL) | 49 | 110 | 110 (≈ 39.8 µg/mL) |  |
| CO[C@H]1/C=C/O[C@@]2(C)Oc3c(C)c(O)c4c(O)c(c(/C=N/N5CCN(C)CC5)c(O)c4c3C2=O)NC(=O)/C(C)=C\C=C\[C@H](C)[C@H](O)[C@@H](C)[C@@H](O)[C@@H](C)[C@H](OC(C)=O)[C@@H]1C [Rifampicin, reference compound] | 0.012 | 0.031 | 0.022 (≈ 0.0181 µg/mL) | 0.007 | 0.016 | 0.013 (≈ 0.0107 µg/mL) |  |  |  |  |  |  |  |  |  | IC50 [3, 17]: 1.1 µM; IC90 [3, 17]: 3.8 µM; MIC [3, 17]: 5.3 µM (≈ 4.36 µg/mL); IC50 [4, 18]: > 50 µM; IC90 [4, 18]: > 50 µM; MIC [4, 18]: > 50 µM; IC50 [5, 19]: 0.013 µM; IC90 [5, 19]: 0.033 µM; MIC [5, 19]: 0.024 µM (≈ 0.0198 µg/mL) |

— PMC6021032, “Antimycobacterial activity of nitrogen heterocycles derivatives: 7-(pyridine-4-yl)-indolizine derivatives. Part VII^8–12” (Journal of Enzyme Inhibition and Medicinal Chemistry, 2017)
